According to ChEMBL document CHEMBL5042496, “An unanticipated discovery towards novel naphthalimide corbelled aminothiazoximes as potential anti-MRSA agents and allosteric modulators for PBP2a” (Eur J Med Chem, 2022):
≈ marks a conversion by molar mass, not a printed value. Calls of active or inactive are those of the source. The calls are words filed in the database; no cut-off is given here.

Experiments:
[1] = system: Staphylococcus; assay: Binding affinity to Staphylococcus aureus PBP2a measured after 6 hrs by ELISA; settings: filed as positive allosteric modulator
[2] = system: Staphylococcus aureus; assay: Antibacterial activity against methicillin-resistant Staphylococcus aureus assessed as bacterial growth inhibition measured after 24 hrs by two fold serial dilution technique; assay type: functional
[3] = system: Klebsiella pneumoniae; assay: Antibacterial activity against Klebsiella pneumoniae assessed as bacterial growth inhibition measured after 24 hrs by two fold serial dilution technique; assay type: functional
[4] = system: Escherichia coli; assay: Antibacterial activity against Escherichia coli ATCC 25922 assessed as bacterial growth inhibition measured after 24 hrs by two fold serial dilution technique; assay type: functional
[5] = system: Escherichia coli; assay: Antibacterial activity against Escherichia coli assessed as bacterial growth inhibition measured after 24 hrs by two fold serial dilution technique; assay type: functional
[6] = system: Enterococcus faecium; assay: Antibacterial activity against Enterococcus faecium assessed as bacterial growth inhibition measured after 24 hrs by two fold serial dilution technique; assay type: functional
[7] = system: Pseudomonas aeruginosa; assay: Antibacterial activity against Pseudomonas aeruginosa ATCC 27853 assessed as bacterial growth inhibition measured after 24 hrs by two fold serial dilution technique; assay type: functional
[8] = system: Acinetobacter baumannii; assay: Antibacterial activity against Acinetobacter baumannii assessed as bacterial growth inhibition measured after 24 hrs by two fold serial dilution technique; assay type: functional
[9] = system: Staphylococcus aureus; assay: Antibacterial activity against Staphylococcus aureus ATCC 29213 assessed as bacterial growth inhibition measured after 24 hrs by two fold serial dilution technique; assay type: functional
[10] = system: Staphylococcus aureus; assay: Antibacterial activity against methicillin resistant Staphylococcus aureus treated over 10 serial passages measured after 24 hrs by resistance development assay; assay type: functional, organism-based
[11] = system: Pseudomonas aeruginosa; assay: Antibacterial activity against Pseudomonas aeruginosa assessed as bacterial growth inhibition measured after 24 hrs by two fold serial dilution technique; assay type: functional
[12] = system: Staphylococcus aureus; assay: Antibacterial activity against Staphylococcus aureus ATCC 25923 assessed as bacterial growth inhibition measured after 24 hrs by two fold serial dilution technique; assay type: functional
[13] = system: Staphylococcus aureus; assay: Antibacterial activity against Staphylococcus aureus assessed as bacterial growth inhibition measured after 24 hrs by two fold serial dilution technique; assay type: functional
[14] = Hemolytic activity in human RBC assessed as hemolysis incubated for 1 hr; assay type: toxicity, cell-based, Erythrocyte; settings: red blood cells
[15] = system: Staphylococcus aureus; assay: Induction of ROS generation in methicillin-resistant Staphylococcus aureus after 6 hrs by DCFH-DA staining based fluorescence assay; assay type: functional, organism-based
[16] = target: T1, MecA (Staphylococcus aureus) (UniProt Q7DHH4); assay: Binding affinity to Staphylococcus aureus PBP2a measured after 6 hrs by ELISA in the presence of Norfloxacin; settings: filed as positive allosteric modulator
T1 sequence (whole entry): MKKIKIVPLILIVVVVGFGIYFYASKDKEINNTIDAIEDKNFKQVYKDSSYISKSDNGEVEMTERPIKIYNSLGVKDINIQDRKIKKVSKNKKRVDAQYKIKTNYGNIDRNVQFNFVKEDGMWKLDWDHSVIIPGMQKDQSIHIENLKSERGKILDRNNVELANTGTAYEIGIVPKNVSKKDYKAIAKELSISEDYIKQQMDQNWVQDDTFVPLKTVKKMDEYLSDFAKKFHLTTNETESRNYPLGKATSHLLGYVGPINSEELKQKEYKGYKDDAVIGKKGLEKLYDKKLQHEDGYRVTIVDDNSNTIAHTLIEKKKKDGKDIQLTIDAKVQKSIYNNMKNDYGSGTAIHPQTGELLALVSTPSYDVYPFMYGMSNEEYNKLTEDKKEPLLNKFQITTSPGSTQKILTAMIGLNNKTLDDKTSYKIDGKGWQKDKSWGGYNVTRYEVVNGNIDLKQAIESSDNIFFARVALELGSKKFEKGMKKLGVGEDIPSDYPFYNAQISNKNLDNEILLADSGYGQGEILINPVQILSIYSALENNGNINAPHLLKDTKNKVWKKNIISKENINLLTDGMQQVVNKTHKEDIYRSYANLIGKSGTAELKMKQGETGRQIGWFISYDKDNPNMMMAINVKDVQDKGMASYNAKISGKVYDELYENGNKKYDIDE

[17] = system: DNA; assay: Binding affinity to DNA (unknown origin) assessed as decrease in maximum absorption peak at 410nm at 3 10^-5 mol/L by UV spectrophotometric analysis; assay type: functional; settings: Homo sapiens
[18] = system: Staphylococcus aureus; assay: Antibacterial activity against methicillin-resistant Staphylococcus aureus assessed as respiratory pathway inactivation by measuring decrease in LDH activity measured after 6 hrs by LDH assay; assay type: functional, organism-based
[19] = system: Staphylococcus aureus; assay: Antibacterial activity against methicillin-resistant Staphylococcus aureus assessed as respiratory pathway inactivation by measuring decrease in LDH activity at MIC incubated for 6 hrs by LDH assay; assay type: functional; parameters: scale not given: the % may be the effect or the level left
[20] = system: Staphylococcus aureus; assay: Antibacterial activity against methicillin-resistant Staphylococcus aureus assessed as shriveled cell structures at 1 time MIC incubated for 8 hrs by SEM analysis; assay type: functional, organism-based
[21] = system: Staphylococcus aureus; assay: Antibacterial activity against methicillin-resistant Staphylococcus aureus assessed as inhibition of bacterial growth at 0.5 time MIC measured after 2 hrs; assay type: functional, organism-based
[22] = target: T1, MecA (Staphylococcus aureus); assay: Binding affinity to Staphylococcus aureus PBP2a measured after 6 hrs by ELISA in the presence of Ceftizoxime; settings: filed as positive allosteric modulator
[23] = system: Cell membrane; assay: Induction of cell membrane disruption in methicillin-resistant Staphylococcus aureus assessed as increase in protein leakage measured after 6 hrs by Bradford assay
[24] = species on record: Homo sapiens; assay: Binding affinity to lipase (unknown origin) assessed as decrease in fluorescence intensity measured after 5 mins by fluorescence spectrofluorometric analysis
[25] = system: Staphylococcus aureus; assay: Antibacterial activity against methicillin resistant Staphylococcus aureus treated over 16 serial passages measured after 24 hrs by resistance development assay; assay type: functional, organism-based
[26] = system: Cell membrane; assay: Induction of membrane depolarization in methicillin-resistant Staphylococcus aureus at MIC measured upto 1 hr by DiSC35 dye-based fluorescence assay; settings: time hrs <=1, TDE = time-dependent effect
[27] = system: Staphylococcus aureus; assay: Antibacterial activity against methicillin-resistant Staphylococcus aureus assessed as disrupted cell shapes at 1 time MIC incubated for 8 hrs by SEM analysis; assay type: functional, organism-based
[28] = system: DNA; assay: Binding affinity to DNA (unknown origin) assessed as decrease in fluorescence intensity at 5 10^-5 mol/L by acridine orange staining based fluorescence microscopic analysis; assay type: functional; settings: Homo sapiens
[29] = system: Cell membrane; assay: Induction of inner membrane permeabilization in methicillin-resistant Staphylococcus aureus at 2 times MIC measured for 1 hr by PI dye-based fluorescence assay; settings: TDE = time-dependent effect
[30] = system: Staphylococcus aureus; assay: Antibacterial activity against methicillin-resistant Staphylococcus aureus assessed as inhibition of bacterial growth at 2 time MIC measured after 2 hrs; assay type: functional, organism-based
[31] = system: Staphylococcus aureus; assay: Antibacterial activity against methicillin-resistant Staphylococcus aureus assessed as pitted cell structures at 1 time MIC incubated for 8 hrs by SEM analysis; assay type: functional, organism-based
[32] = system: Staphylococcus aureus; assay: Antibacterial activity against methicillin-resistant Staphylococcus aureus assessed as inhibition of bacterial growth at 1 time MIC measured after 2 hrs; assay type: functional, organism-based
[33] = system: L929; assay: Cytotoxicity against mouse L929 cells assessed as reduction in cell viability at 0.39 to 100 ug/ml incubated for 24 hrs by MTT assay; assay type: toxicity, cell-based; settings: l929, 24 h, dose 0.39-100 µg/ml
[34] = system: Cell membrane; assay: Induction of inner membrane permeabilization in methicillin-resistant Staphylococcus aureus at 1 time MIC measured for 1 hr by PI dye-based fluorescence assay; settings: TDE = time-dependent effect
[35] = system: DNA; assay: Binding affinity to DNA (unknown origin) assessed as hypochromicity at 0.2 to 0.8 10^-5 mol/L by UV spectrophotometric analysis; assay type: functional; settings: Homo sapiens; dose 0.2-0.8 10^-5mol/L

CN(C)CCN1C(=O)c2cccc3c(N4CCNCC4)ccc(c23)C1=O
Activity [1]: 4.74 µg/mL

CO/N=C(\C(=O)N[C@@H]1C(=O)N2C(C(=O)O)=CCS[C@H]12)c1csc(N)n1
Activity [1]: 7.45 µg/mL

CN(C)CCN1C(=O)c2cccc3c(Br)ccc(c23)C1=O
Activity [1]: 7.08 µg/mL

CCn1cc(C(=O)O)c(=O)c2cc(F)c(N3CCNCC3)cc21 [NORFLOXACIN]
MIC [2]: 16 µg/mL (≈ 50.1 µM)
MIC [3]: 4 µg/mL (≈ 12.5 µM)
MIC [4]: 4 µg/mL (≈ 12.5 µM)
MIC [5]: 2 µg/mL (≈ 6.26 µM)
MIC [6]: 8 µg/mL (≈ 25.1 µM)
MIC [7]: 2 µg/mL (≈ 6.26 µM)
MIC [8]: 1 µg/mL (≈ 3.13 µM)
MIC [9]: 16 µg/mL (≈ 50.1 µM)
Activity [10]: inactive
MIC [11]: 4 µg/mL (≈ 12.5 µM)
MIC [12]: 16 µg/mL (≈ 50.1 µM)
Activity [1]: 7.67 µg/mL
MIC [13]: 8 µg/mL (≈ 25.1 µM)

CO/N=C(\C(=O)N1CCN(c2ccc3c4c(cccc24)C(=O)N(OC)C3=O)CC1)c1csc(N)n1
MIC [2]: 128 µg/mL (≈ 259 µM)
MIC [3]: 128 µg/mL (≈ 259 µM)
MIC [4]: 64 µg/mL (≈ 129 µM)
MIC [5]: 64 µg/mL (≈ 129 µM)
MIC [6]: 2 µg/mL (≈ 4.04 µM)
MIC [7]: 32 µg/mL (≈ 64.7 µM)
MIC [8]: 4 µg/mL (≈ 8.09 µM)
MIC [9]: 64 µg/mL (≈ 129 µM)
HC50 at 1 h [14]: 513 µg/mL
MIC [11]: 128 µg/mL (≈ 259 µM)
MIC [12]: 64 µg/mL (≈ 129 µM)
Activity [1]: 5.43 µg/mL
MIC [13]: 128 µg/mL (≈ 259 µM)

CO/N=C(\C(=O)N1CCN(c2ccc3c4c(cccc24)C(=O)N(c2nc4ccccc4s2)C3=O)CC1)c1csc(N)n1
MIC [2]: 16 µg/mL (≈ 26.8 µM)
MIC [3]: 16 µg/mL (≈ 26.8 µM)
MIC [4]: 16 µg/mL (≈ 26.8 µM)
MIC [5]: 64 µg/mL (≈ 107 µM)
MIC [6]: 64 µg/mL (≈ 107 µM)
MIC [7]: 32 µg/mL (≈ 53.5 µM)
MIC [8]: 128 µg/mL (≈ 214 µM)
MIC [9]: 128 µg/mL (≈ 214 µM)
HC50 at 1 h [14]: 334 µg/mL
MIC [11]: 64 µg/mL (≈ 107 µM)
MIC [12]: 128 µg/mL (≈ 214 µM)
MIC [13]: 128 µg/mL (≈ 214 µM)

CO/N=C(\C(=O)N1CCN(c2ccc3c4c(cccc24)C(=O)N(CCN(C)C)C3=O)CC1)c1csc(N)n1
Activity [15]: Dose-Dependent Effect
Activity [16]: 4.96 ng/mL
Activity [17]: Active
MIC [2]: 0.5 µg/mL (≈ 0.933 µM)
Activity [18]: Dose-Dependent Effect
Activity [19]: 45%
Activity [20]: Active
MIC [3]: 4 µg/mL (≈ 7.47 µM)
MIC [4]: 16 µg/mL (≈ 29.9 µM)
MIC [5]: 2 µg/mL (≈ 3.73 µM)
Activity [21]: Active
MIC [6]: 4 µg/mL (≈ 7.47 µM)
MIC [7]: 8 µg/mL (≈ 14.9 µM)
MIC [8]: 16 µg/mL (≈ 29.9 µM)
Activity [22]: 1.29 ng/mL
MIC [9]: 4 µg/mL (≈ 7.47 µM)
Activity [23]: Dose-Dependent Effect
Activity [24]: Active
Activity [25]: Active
Activity [26]: Tde
Activity [27]: Active
Activity [28]: Active
Activity [29]: Tde
HC50 at 1 h [14]: 205 µg/mL
MIC [11]: 16 µg/mL (≈ 29.9 µM)
Activity [30]: Active
Activity [31]: Active
Activity [32]: Active
MIC [12]: 8 µg/mL (≈ 14.9 µM)
Activity [1]: 4.58 µg/mL
Activity [33]: Non-Toxic
MIC [13]: 16 µg/mL (≈ 29.9 µM)
Activity [34]: Tde
Activity [35]: Active

CO/N=C(\C(=O)N1CCN(c2ccc3c4c(cccc24)C(=O)N(n2cnnc2)C3=O)CC1)c1csc(N)n1
MIC [2]: 2 µg/mL (≈ 3.76 µM)
MIC [3]: 64 µg/mL (≈ 120 µM)
MIC [4]: 64 µg/mL (≈ 120 µM)
MIC [5]: 32 µg/mL (≈ 60.2 µM)
MIC [6]: 16 µg/mL (≈ 30.1 µM)
MIC [7]: 64 µg/mL (≈ 120 µM)
MIC [8]: 16 µg/mL (≈ 30.1 µM)
MIC [9]: 1 µg/mL (≈ 1.88 µM)
HC50 at 1 h [14]: 255 µg/mL
MIC [11]: 16 µg/mL (≈ 30.1 µM)
MIC [12]: 128 µg/mL (≈ 241 µM)
MIC [13]: 128 µg/mL (≈ 241 µM)
